The record followed here is patent publication US11667602B2, “Compounds and their use” (AstraZeneca AB, priority 2020, dated 2023).

A short description of data set [1]: Human Liver Microsomal Stability (Test C). The format is in vitro ADME. As to conditions: for microsomal CLint: human, liver microsomes. Summed up: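 CLint (μl/min/mg protein) derived from compound depletion in human liver microsomes following a published standardized early-DMPK protocol; replicate determinations given as arithmetic mean.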
The nature of data set [2]: Rat Hepatocyte Stability (Test E). As to conditions: geometric mean if run multiple times; for hepatocyte CLint: rat, hepatocytes. The format is in vitro ADME. Summed up: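 Intrinsic clearance in rat hepatocytes, expressed as μl/min/10^6 cells, following the literature integrated DMPK panel method. Repeat determinations combined as geometric mean.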
A short description of data set [3]: Human Plasma Protein Binding (Test B). It counts as in vitro ADME. The note with it: fraction unbound (fu). An outline of the steps: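 Values given as % free (fu) in human plasma, using the method of Wernevik et al. (2020). For compounds tested more than once, the arithmetic mean is given.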
Data set [4] can be described thus: Human Hepatocyte Stability (Test D). The note with it: geometric mean if run multiple times; for hepatocyte CLint at 1 µM: human, cryopreserved pooled human hepatocytes (LiverPool 10-Donor). The format is in vitro ADME. An outline of the steps: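 Intrinsic clearance (μL/min/10^6 cells), derived as kV/N from the log-linear loss of parent compound. Compound incubated at 37 °C with cryopreserved pooled human hepatocytes, 0.25×10^6 cells in 0.25 mL L-15; dosing solution 100 μM in acetonitrile. Singlicate incubations, cassette LC-MS; repeats reported as geometric mean.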

For data set [5], the target named is T1, human RXFP1 (Homo sapiens, UniProt Q9HBX9).
T1 sequence (Q9HBX9 1-757): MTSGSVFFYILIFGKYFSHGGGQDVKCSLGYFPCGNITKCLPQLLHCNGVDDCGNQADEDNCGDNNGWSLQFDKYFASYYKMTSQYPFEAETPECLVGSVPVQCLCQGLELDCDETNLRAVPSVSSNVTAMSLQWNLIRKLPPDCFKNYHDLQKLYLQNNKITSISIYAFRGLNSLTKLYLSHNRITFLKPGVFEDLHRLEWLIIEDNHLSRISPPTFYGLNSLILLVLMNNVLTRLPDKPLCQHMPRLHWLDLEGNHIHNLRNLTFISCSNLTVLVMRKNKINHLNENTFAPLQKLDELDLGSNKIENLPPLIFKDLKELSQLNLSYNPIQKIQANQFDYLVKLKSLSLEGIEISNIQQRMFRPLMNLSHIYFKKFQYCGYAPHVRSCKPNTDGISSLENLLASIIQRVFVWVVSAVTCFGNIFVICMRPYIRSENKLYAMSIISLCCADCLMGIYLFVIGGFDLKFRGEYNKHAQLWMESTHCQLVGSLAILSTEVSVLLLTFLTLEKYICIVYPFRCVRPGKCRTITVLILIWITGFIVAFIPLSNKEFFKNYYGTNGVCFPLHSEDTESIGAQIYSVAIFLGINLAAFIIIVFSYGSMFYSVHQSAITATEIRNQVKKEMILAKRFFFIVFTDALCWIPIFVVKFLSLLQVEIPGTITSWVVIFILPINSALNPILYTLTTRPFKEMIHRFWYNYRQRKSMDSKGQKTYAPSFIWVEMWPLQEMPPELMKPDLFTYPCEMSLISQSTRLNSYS
Description: RXFP1 Hu cAMP (Test A). It counts as cell-based. Also on record: expressed in transfected cells; host or cells: Jump-In T-REx CHO-K1 cells (ThermoFisher), induced with 10 ng/ml doxycycline for 24 h. The note with it: RXFP1 Hu cAMP; for EC50: read-out: Test A EC50. An outline of the steps: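 Cells: CHO-K1 stably carrying human RXFP1, expressed after 24 h 10 ng/ml doxycycline; 0.5 mM IBMX final, HTRF detection after 2 h at room temperature.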

Data set [6] in a line: Solubility (Test F). It counts as physicochemical. The note with it: arithmetic mean if run multiple times. The method, then: The assay was conducted according to the Solubility Assay described in pages 164-167 of Wernevik, J. et al., “A Fully Integrated Assay Panel for Early Drug Metabolism and Pharmacokinetics Profiling”, Assay and Drug Development Technologies, 2020, 18(4), 157-179. Data are reported in Table 36 as solubility ([…]. Where the assay was run multiple times for the same compound, the arithmetic mean is reported.

Usually microsomal CLint stands for a measure of how fast metabolising enzymes remove a compound, apart from limits set by blood flow. The hepatocyte CLint is a measure of how fast metabolising enzymes remove a compound, apart from limits set by blood flow. Read a low hepatocyte CLint as greater metabolic stability. Usually EC50 stands for the concentration that produces a half-maximal response. What is called solubility is the concentration that dissolves in the medium under given conditions. A low value points to a poorly soluble substance.

In brackets after ≈: the same amount, converted by molar mass. A value given as a limit tells only on which side of the number the result lay.

Regarding `COc1cc(F)c(-c2ncc(CCC(=O)O)cn2)cc1C(=O)N[C@@H]1[C@H]2CC[C@H](C2)[C@@H]1C(=O)Nc1cccc(S(=O)(=O)C(F)(F)F)c1` [Example 323, 3-(2-(2-Fluoro-4-methoxy-5-(((1S,2R,3S,4R)-3-((3-((trifluoromethyl)sulfonyl)phenyl)carbamoyl)bicyclo[2.2.1]heptan-2-yl)carbamoyl)phenyl)pyrimidin-5-yl)propanoic acid], the intrinsic clearance (microsomal CLint) in data set [1] turned out to be 58 µL/min/mg. Moreover, the intrinsic clearance (hepatocyte CLint) in data set [2] came out at 21 µL/min/1e6 cells. The “Test B Human Plasma Protein Binding (% free)” value in data set [3] was found to be 9.3 % free. This compound displayed a hepatocyte CLint at 1 µM in data set [4] of 16 µL/min/1e6 cells. Further, in data set [5], the “Test A Sinf” value was found to be 108% and the concentration for a half-maximal effect (EC50) stood at 0.42 µM. Moreover, in data set [6], the solubility came out at 850 µM (≈ 565 µg/mL).

As to `COc1cc(F)c(O[C@H]2CC[C@@](C)(C(=O)O)CC2)cc1C(=O)N[C@@H]1[C@H]2CC[C@H](C2)[C@@H]1C(=O)N[C@@H]1CCN(S(=O)(=O)C(F)(F)F)C1` [Example 605], in data set [1], the intrinsic metabolic clearance (microsomal CLint) came out at 25 µL/min/mg. Besides, the hepatocyte CLint in data set [2] was determined as 12 µL/min/1e6 cells. The “Test B Human Plasma Protein Binding (% free)” value in data set [3] is on record as 8.6 % free. Moreover, the hepatocyte CLint at 1 µM in data set [4] was determined as 4.3 µL/min/1e6 cells. In data set [5], the “Test A Sinf” value came out at 106% and the concentration for a half-maximal effect (EC50) stood at 0.079 µM. The compound further returned a solubility in data set [6] of 890 µM (≈ 591 µg/mL).

In data set [1], `COc1cc(F)c(O[C@H]2CC[C@@](C)(C(=O)O)CC2)cc1C(=O)N[C@@H]1[C@H](O)CC[C@@H]1C(=O)Nc1cccc(S(=O)(=O)C(F)(F)F)c1` (racemic) [Example 396, (1R,4s)-4-(2-Fluoro-5-(((1SR,2RS,5SR)-2-hydroxy-5-((3-((trifluoromethyl)sulfonyl)phenyl)carbamoyl)cyclopentyl)carbamoyl)-4-methoxyphenoxy)-1-methylcyclohexane-1-carboxylic acid] registered an intrinsic metabolic clearance (microsomal CLint) of 47 µL/min/mg. This compound had a hepatocyte CLint in data set [2] of 16 µL/min/1e6 cells. For the same compound, the “Test B Human Plasma Protein Binding (% free)” value in data set [3] was found to be 5 % free. In data set [4], this compound returned an intrinsic clearance (hepatocyte CLint) at 1 µM of 16 µL/min/1e6 cells. Also, in data set [5], the “Test A Sinf” value is 91% and the 50% effective concentration (EC50) was determined as 0.64 µM. This compound also returned a solubility in data set [6] of 21 µM (≈ 13.9 µg/mL).

`COc1cc(F)c(-c2ccn(CCC(=O)O)c(=O)c2)cc1C(=O)N[C@@H]1[C@H]2CC[C@H](C2)[C@@H]1C(=O)Nc1cccc(S(=O)(=O)C(F)(F)F)c1` [Example 249] yielded an intrinsic clearance (microsomal CLint) in data set [1] of 43 µL/min/mg. Moreover, the hepatocyte CLint in data set [2] was determined as 15 µL/min/1e6 cells. The “Test B Human Plasma Protein Binding (% free)” value in data set [3] was determined as 3.4 % free. Besides, the hepatocyte CLint at 1 µM in data set [4] is 11 µL/min/1e6 cells. For the same compound, in data set [5], the “Test A Sinf” value amounted to 113% and the EC50 was 0.32 µM. In data set [6], the solubility is 190 µM (≈ 129 µg/mL).

Turning to `COc1cc(C#N)c(-c2ccc(OCC(=O)O)cc2)cc1C(=O)N[C@@H]1[C@H]2CC[C@H](C2)[C@@H]1C(=O)Nc1cccc(S(=O)(=O)C(F)(F)F)c1` [Example 329, 2-((2′-Cyano-4′-methoxy-5′-(((1S,2R,3S,4R)-3-((3-((trifluoromethyl)sulfonyl)phenyl)carbamoyl)bicyclo[2.2.1]heptan-2-yl)carbamoyl)-[1,1′-biphenyl]-4-yl)oxy)acetic acid], in data set [1], the microsomal CLint is 30 µL/min/mg. Besides, the intrinsic metabolic clearance (hepatocyte CLint) in data set [2] is 26 µL/min/1e6 cells. Besides, in data set [3], the “Test B Human Plasma Protein Binding (% free)” value was 0.81 % free. In data set [4], the intrinsic clearance (hepatocyte CLint) at 1 µM came out at 5.6 µL/min/1e6 cells. Also, in data set [5], the “Test A Sinf” value amounted to 108% and the EC50 was 0.14 µM. The same compound gave a solubility in data set [6] of 1000 µM (≈ 672 µg/mL).

Compound `COc1cc(F)c(-c2ccc(C3(C(=O)O)CC3)cc2)cc1C(=O)N[C@H]1[C@@H](C(=O)Nc2cccc(S(=O)(=O)C(F)(F)F)c2)[C@@H]2C=C[C@H]1C2` (racemic) [Example 288] had an intrinsic clearance (microsomal CLint) in data set [1] of 5.1 µL/min/mg. This compound also returned an intrinsic clearance (hepatocyte CLint) in data set [2] of 21 µL/min/1e6 cells. Besides, in data set [3], the “Test B Human Plasma Protein Binding (% free)” value is on record as below 0.32 % free. For the same compound, the hepatocyte CLint at 1 µM in data set [4] came to 5 µL/min/1e6 cells. Also, the “Test A Sinf” value in data set [5] came out at 107%. For the same compound, in data set [6], the concentration in solution (solubility) was 24 µM (≈ 16.1 µg/mL).

With `COc1cc(F)c(-c2cccc(C(=O)O)c2)cc1C(=O)N[C@H]1[C@@H](C(=O)Nc2ccc(F)c(S(=O)(=O)C(F)(F)F)c2)[C@@H]2C=C[C@H]1C2` (racemic) [Example 297], in data set [1], the microsomal CLint turned out to be 9.1 µL/min/mg. This compound also came in with an intrinsic clearance (hepatocyte CLint) in data set [2] of 12 µL/min/1e6 cells. The “Test B Human Plasma Protein Binding (% free)” value in data set [3] was below 0.33 % free. In data set [4], the intrinsic metabolic clearance (hepatocyte CLint) at 1 µM was 9.4 µL/min/1e6 cells. In addition, in data set [5], the “Test A Sinf” value is given as 98% and the concentration for a half-maximal effect (EC50) came out at 0.12 µM. The same compound came in with a solubility in data set [6] of 8 µM (≈ 5.2 µg/mL).

Turning to `COc1cc(F)c(O[C@H]2CC[C@@H](C(N)=O)CC2)cc1C(=O)N[C@H]1[C@@H](C(=O)Nc2ccc(F)c(C(F)(F)F)c2)[C@@H]2C=C[C@H]1C2` [Example 499, (1S,2S,3R,4R)-3-(5-(((1s,4S)-4-Carbamoylcyclohexyl)oxy)-4-fluoro-2-methoxybenzamido)-N-(4-fluoro-3-(trifluoromethyl)phenyl)bicyclo[2.2.1]hept-5-ene-2-carboxamide], the microsomal CLint in data set [1] was determined as 200 µL/min/mg. Also, the hepatocyte CLint in data set [2] was determined as 96 µL/min/1e6 cells. Further, in data set [3], the “Test B Human Plasma Protein Binding (% free)” value came to 0.51 % free. In data set [4], the hepatocyte CLint at 1 µM was found to be 28 µL/min/1e6 cells. In data set [5], the “Test A Sinf” value stood at 128% and the EC50 stood at 0.1 µM. Moreover, in data set [6], the solubility amounted to 13 µM (≈ 7.9 µg/mL).

Take `COc1cc(C#N)c(O[C@H]2CC[C@@](C)(C(=O)O)CC2)cc1C(=O)N[C@@H]1[C@H]2CC[C@H](C2)[C@@H]1C(=O)NC(C)(C)CF` [Example 77]: in data set [1], the microsomal CLint is 4 µL/min/mg. The same compound displayed a hepatocyte CLint in data set [2] of 12 µL/min/1e6 cells. Besides, in data set [3], the “Test B Human Plasma Protein Binding (% free)” value was determined as 21 % free. The hepatocyte CLint at 1 µM in data set [4] worked out at 3.7 µL/min/1e6 cells. In addition, the “Test A Sinf” value in data set [5] amounted to 108%. For the same compound, the solubility in data set [6] was determined as 650 µM (≈ 353 µg/mL).

For `COc1cc(F)c(O[C@H]2CC[C@@](C)(C(=O)O)CC2)cc1C(=O)N[C@H]1C[C@@H](OC)C[C@H]1C(=O)Nc1cccc(S(=O)(=O)C(F)(F)F)c1` (stereo in doubt) [Example 523, (1R,4s)-4-(2-fluoro-4-methoxy-5-(((1S*,2R*,4S*)-4-methoxy-2-((3-((trifluoromethyl)sulfonyl)phenyl)carbamoyl)cyclopentyl)carbamoyl)phenoxy)-1-methylcyclohexane-1-carboxylic acid], in data set [1] (human liver microsomes), the “Test C Human Liver Microsomal Stability Clint” value was above 300 µL/min/mg. In addition, the “Test E Rat Hepatocyte Stability Clint” value in data set [2] (rat hepatocytes) worked out at 34 μL/min/10^6 cells. The “Test B Human Plasma Protein Binding (% free)” value in data set [3] turned out to be 4 % free. For the same compound, the “Test D Human Hepatocyte Stability Clint” value in data set [4] (human hepatocytes) amounted to 49 μL/min/10^6 cells. In data set [5], the “Test A Sinf” value amounted to 95% and the half-maximal effective concentration (EC50) was 0.27 µM. In data set [6], the solubility is 920 µM (≈ 621 µg/mL).

`COc1cc(F)c(OCCCCCCC(=O)O)cc1C(=O)N[C@@H]1[C@H]2CC[C@H](C2)[C@@H]1C(=O)Nc1cccc(S(=O)(=O)C(F)(F)F)c1` [Example 436] came in with a microsomal CLint in data set [1] of 70 µL/min/mg. Besides, in data set [2], the hepatocyte CLint was above 300 µL/min/1e6 cells. Besides, in data set [3], the “Test B Human Plasma Protein Binding (% free)” value amounted to 0.82 % free. In data set [4], this compound came in with a hepatocyte CLint at 1 µM of 97 µL/min/1e6 cells. In data set [5], the “Test A Sinf” value turned out to be 115% and the half-maximal effective concentration (EC50) came to 0.54 µM. This compound also gave a solubility in data set [6] of 220 µM (≈ 145 µg/mL).
